From patent publication US20090087443A1, “Pharmacological Adjunctive Treatment Associated with Glaucoma Filtration Surgery” (priority 2007, published 2009)
Where “and” joins values, the source holds several entries; their conditions need not be identical. Equal values may be shown once. Entries after “also recorded” stand apart in the source; their conditions may differ. Read-outs that look alike come from different tables or passages of the source.

Columns and labels:
[1] = test system: New Zealand White rabbits; assay: Slit-lamp ophthalmic observations (McDonald Shadduck scoring) in the rabbit topical IOP study; format: in vivo; parameters: key to Conjunctival Congestion Score, treated right eye: 1 = A flushed, reddish color predominantly confined to the palpebral conjunctiva with some perilimbal injection but primarily confined to the lower and upper parts of the eye from the 4:00 to 7:00 and 11:00 to 1:00 positions; key to Cornea Score, treated right eye: 1 = Some loss of transparency. Only the epithelium and/or the anterior half of the stoma are involved. The underlying structures are clearly visible although some cloudiness may be readily apparent; key to Ophthalmic Observation (Slit-Lamp), treated right eye, individual animals: AN = Appeared normal; conditions: for Ophthalmic Observation (Slit-Lamp), treated right eye, individual animals: examination Days 5, 12, 22, 26, 33 as listed per animal (days without scored finding, until death)
Procedure: Prior to placement on study, each animal underwent a pre-treatment ophthalmic examination (slit lamp and indirect ophthalmoscopy). Observations were scored according to the McDonald Shadduck system and recorded using a standardized data collection sheet.
Ophthalmic examinations (slit lamp) were performed prior to the first dosing on Days 5, 12, 22, 26, and 33. Ocular findings were scored according to the McDonald Shadduck system and recorded using a standardized data collection sheet.

[2] = test system: Human Tenon's fibroblasts; assay: TGF-β stimulated cellular levels of collagen type I, α-smooth muscle actin and tissue transglutaminase (Western blot); format: cell-based; conditions: TGF-β 5 ng/ml, 0.1, 1, 3, 5 or 10 μM, day 5, ratio to GAPDH
Procedure: Methods: Human Tenon's fibroblasts were seeded in 60 mm plates in 10% FBS MEM (fetal bovine serum/Eagle's minimum essential medium) and grown until approximately 90% confluency. After the cells were starved in 0.5% FBS MEM for approximately 72 hours, the media was changed to fresh 0.5% FBS MEM. […] Cells were harvested 1, 3 or 5 days later. They were washed twice with cold 1× PBS and scraped into 1×SDS sample buffer. Lysates were assayed for protein content using the DC protein assay kit from Bio-Rad. Equal amounts of protein from each sample were electrophoresed on a 7.5% Tris-glycine SDS gel. Proteins were transferred to a PVDF membrane, blocked and probed with one or more of the following antibodies: mouse monoclonal anti-α-smooth muscle actin Clone 1A4: (Sigma Aldrich, #A2547), mouse monoclonal anti-human GAPDH (6C5) (Santa Cruz Biotechnology, Inc., #sc-32233), goat anti-human collagen α1Type I (L-19) (Santa Cruz Biotechnology, Inc., #sc-8783), or mouse monoclonal anti-transglutaminase II Ab-3 (ClonesCUB7402+TG100) (NeoMarkers, # MS-300-P). Density of each band was measured densitometrically and the ratio to GADPH calculated.

[3] = test system: New Zealand White rabbits; assay: Mortality/morbidity in the rabbit topical IOP study; format: in vivo; conditions: for Mortality (number of animals found dead or euthanized prior to study completion/number of animals in group): right eye topical 4 × daily through Day 31, to Day 33
[4] = test system: IL-1β-induced cytokine production in human corneal epithelial cells (HCECs); assay: IL-1β-stimulated cytokine production in primary human corneal epithelial cells (30-cytokine Luminex kit)
Procedure: Primary HCECs were seeded in 24-well plates. […] Each treatment was performed in triplicate. Media were collected and used for determination of cytokine content using a 30-cytokine Luminex kit. Cell viability was determined by alamarBlue assay (LP06013).
Median fluorescence intensity (MFI) was used to obtain the concentration of each cytokines in pg/ml based on the standard curve of each cytokine assayed by Luminex. The linear range of the standard curve for each cytokine was used for determination of cytokine concentration. Duplicate values for each sample were averaged. Data were expressed as mean±SD. Statistical analysis was performed using one-way ANOVA-Dunnett's test, and P<0.05 was considered statistically significant.

[5] = test system: neovascularization and angiogenesis in the rat cornea; conditions: X. Xin et al., J. Biol. Chem. 274:9116-9121 (1999); cited from earlier work
[6] = test system: fibroblasts; conditions: cited from earlier work
[7] = 0.1% dexamethasone, 0.05 mg/dose 4 × daily (Group A)

Cc1ccc2c(NCC(O)(CC(C)(C)c3cc(F)cc4c3OCC4)C(F)(F)F)cccc2n1 (stereo not shown)
Conjunctival Congestion Score, treated right eye ([1]; 1 mg/g suspension 4 × daily, animal No. 3040, Day 22): 1
Ophthalmic Observation (Slit-Lamp), treated right eye, individual animals ([1]; 1 mg/g suspension 4 × daily): AN
Other slit-lamp finding in dosed right eye ([1]; 1 mg/g suspension, Group D, No. 3043): subconjunctival hemorrhage
Conjunctival Congestion Score, treated right eye ([1]; 5 mg/g suspension 4 × daily, animal No. 3031, Day 22): 1
Conjunctival Congestion Score, treated right eye ([1]; 5 mg/g suspension 4 × daily, animal No. 3035, Days 22, 26): 1
Conjunctival Congestion Score, treated right eye ([1]; 5 mg/g suspension 4 × daily, animal No. 3064, Day 5): 1
Conjunctival Congestion Score, treated right eye ([1]; 5 mg/g suspension 4 × daily, animal No. 3074, Day 26): 1
Ophthalmic Observation (Slit-Lamp), treated right eye, individual animals ([1]; 5 mg/g suspension 4 × daily): AN
Conjunctival Congestion Score, treated right eye ([1]; 10 mg/g suspension 4 × daily, animal No. 3003, Day 12): 1
Conjunctival Congestion Score, treated right eye ([1]; 10 mg/g suspension 4 × daily, animal No. 3017, Days 5, 12): 1
Conjunctival Congestion Score, treated right eye ([1]; 10 mg/g suspension 4 × daily, animal No. 3042, Day 26): 1
Surface area of cornea involvement Score, treated right eye ([1]; 10 mg/g suspension 4 × daily, animal No. 3083, Day 5): 1 (1 = 1-25% area of stromal cloudiness.)
Cornea Score, treated right eye ([1]; 10 mg/g suspension 4 × daily, animal No. 3083, Day 5, pinpoint corneal scar): 1^(2)
Ophthalmic Observation (Slit-Lamp), treated right eye, individual animals ([1]; 10 mg/g suspension 4 × daily): AN
Other slit-lamp finding in dosed right eye ([1]; 10 mg/g suspension, Group B, No. 3083): pinpoint corneal scar
Effect on TGF-β-induced cellular level of collagen type I [2]: inhibitory effect that appeared dose-related; also recorded: inhibit
Effect on TGF-β-induced cellular level of tissue transglutaminase [2]: inhibitory effect that appeared dose-related; also recorded: inhibit
Effect on TGF-β-induced cellular level of α-smooth muscle actin [2]: inhibitory effect that appeared dose-related; also recorded: inhibit
Day of Death (day euthanized or found dead), individual rabbits [3]: 29
Recorded Notes on mortality/morbidity, individual rabbits ([3]; 1 mg/g suspension, 0.05 mg/dose 4 × daily (Group D)): Found dead.
Mortality (number of animals found dead or euthanized prior to study completion/number of animals in group) ([3]; 1 mg/g suspension, 0.05 mg/dose): one of ten and 1/10^(6)
Day of Death (day euthanized or found dead), individual rabbits ([3]; 10 mg/g suspension, 0.5 mg/dose 4 × daily (Group B)): 11
Mortality (number of animals found dead or euthanized prior to study completion/number of animals in group) ([3]; 10 mg/g suspension, 0.5 mg/dose): one of ten and 1/10^(4)
Potency relative to dexamethasone for inhibition of IL-1β-stimulated production of IL-6, IL-7, TGF-α, TNF-α, VGEF, and MCP-1 [4]: comparable potency
Potency relative to dexamethasone in inhibiting IL-1β-stimulated production of G-CSF [4]: more potent than dexamethasone
Potency relative to dexamethasone in inhibiting IL-1β-stimulated production of GM-CSF, IL-8, and RANTES [4]: somewhat less potent than dexamethasone
Effect on IL-1β-stimulated RANTES production ([4]; 1 nM-10 μM, IL-1β 10 ng/ml, 18 h): no significant effect

C[C@@H]1C[C@H]2[C@@H]3CCC4=CC(=O)C=C[C@]4(C)[C@@]3(F)[C@@H](O)C[C@]2(C)[C@@]1(O)C(=O)CO [dexamethasone, reference compound]
Conjunctival Congestion Score, treated right eye ([1]; 0.1% dexamethasone 4 × daily, animal No. 3016, Day 5): 1
Conjunctival Congestion Score, treated right eye ([1]; 0.1% dexamethasone 4 × daily, animal No. 3081, Day 22): 1
Ophthalmic Observation (Slit-Lamp), treated right eye, individual animals ([1]; 0.1% dexamethasone 4 × daily): AN
Mortality (number of animals found dead or euthanized prior to study completion/number of animals in group) ([3]; 0.1% dexamethasone (Maxidex), 0.05 mg/dose): Six of ten
Mortality (number of animals found dead or euthanized prior to study completion/number of animals in group) ([3]; 0.1% dexamethasone (Maxidex), 0.05 mg/dose, listed as Dexamethasone): 6/10^(3)
Day of Death (day euthanized or found dead), individual rabbits [3, 7]: 25 (2×) and 27 (2×) and 23 and 13
Recorded Notes on mortality/morbidity, individual rabbits [3, 7]: Euthanized due to severe profuse hemorrhagic diarrhea; also recorded: Found dead. No rigor mortis present
Mortality rate ([3]; dexamethasone 0.05 mg/dose 4 × daily up to 31 days): 6 deaths per 10 rabbits

CCCCCC=CC=C1C(=O)C=C[C@@H]1CC=CCCCC(=O)O [15-deoxy-Δ-12,14-prostaglandin J2]
Effect on neovascularization and angiogenesis in the rat cornea [5]: inhibit

B1: Prolactin: antagonist to at least one TGF-β isoform (protein, UniProt P01236 29-227, looked up)
Prolactin: LPICPGGAARCQVTLRDLFDRAVVLSHYIHNLSSEMFSEFDKRYTHGRGFITKAINSCHTSSLATPEDKEQAQQMNQKDFLSLIVSILRSWNEPLYHLVTEVRGMQEAPEAILSKAVEIEEQTKRLLEGMELIVSQVHPETKENEIYPVWSGLPSLQMADEESRLSAYYNLLHCLRRDSHKIDNYLKLLKCRIIHNNNC
Effect on the chemotaxis of fibroblasts [6]: inhibit
